Data: patent publication US20170252306A1, “Pharmaceutical Compositions for Preventing and Treating Th1 or Th2 mediated Immune Disease Comprising 4H3MC(4-Hydroxy-3-methoxycinnamaldehyde) as an Active Ingredient” (GWANGJU INSTITUTE OF SCIENCE AND TECHNOLOGY, priority 2016, published 2017)

Legend:
[1] = tested on: PKC; assay: PKC activity measurement in Jurkat T cell lysate (ELISA-based kinase assay); type: biochemical, human; settings: Jurkat T cell cytosol fraction, compound 0.01-50 μM, PMA 100 nM
Experimental: Jurkat T cells (1×10^6) were suspended in lysis buffer (1% Triton X-100, 150 mM NaCl, 20 mM Tris pH 7.5, protease inhibitor, phosphatase inhibitor), and then kept at 4° C. for 1 hour and centrifuged at 14,000×g for 30 minutes. Cell lysate was incubated with 4H3MC ([…]), HCA ([…]) or STSN (10 nM) at 4° C. for 30 minutes. PMA (100 nM) was added, and PKC activity was measured with a nonradioactive protein kinase assay based on ELISA. The assay was developed with tetramethylbenzidine substrate, and the color developed proportionally to PKC phosphotransferase activity. The intensity of the color was measured at 450 nm. The data were expressed as relative kinase activity.

[2] = tested on: Jurkat T cells and human PBLs; assay: IL-2 secretion from activated T cells (ELISA); type: cell-based; settings: for IC50: Jurkat T cells and human PBLs, PMA/A23187 stimulation, supernatants after 36 hours, ELISA, read-out: IC50 of inhibition of IL-2 secretion
Experimental: (§1) Jurkat T cells (5×10^5) or human PBLs (1×10^6) were stimulated with anti-CD3 (OKT3, 10 μg/ml)/CD28 (2 μg/ml) or PMA (100 nM)/A23187 (1 μM). For anti-CD3/CD28 stimulation, cells were placed on a culture dish coated with anti-CD3 antibody, and were then treated with anti-CD28 (2 μg/ml) antibody. For superantigen stimulation, T cells were incubated with SEE (1 μg/ml)-pulsed Raji B cells. For pre- or post-treatment experiments, various concentrations of 4H3MC or HCA were added 30 minutes or 60 minutes before stimulation.
Jurkat T cells or human PBLs were stimulated in the same manner as described above with respect to T-cell stimulation and treatment with 4H3MC or HCA. At the indicated time points, the supernatants were collected, and the concentrations of IL-2 in the supernatants were measured using a Duo set Human IL-2 ELISA kit (R&D Systems).

[3] = tested on: Jurkat T cells and human PBLs; assay: IL-2 mRNA expression in activated T cells (real-time PCR); type: cell-based
Experimental: as §1
Total RNA was isolated from Jurkat T cells using TRIZOL reagent (JBI, Korea). Reverse transcription of the RNA was performed using RT Pre-Mix (Intron, Korea). The primers and PCR conditions were as follows: […]
The amplification profile was composed of denaturation at 94° C. for 30 seconds, annealing at 60° C. for 20 seconds, and extension at 72° C. for 40 seconds. 30 cycles were preceded by denaturation at […] for 7 minutes. In some experiments, the expression levels of IL-2 mRNA were evaluated by real-time RT-PCR. Total RNA was isolated and cDNA was synthesized as described above. PCR amplification was performed in Step One Real-time PCR system (Applied Biosystems, Foster city, CA) for continuous fluorescence detection system using SYBR (Takara, Japan). Each PCR reaction was performed under the following conditions: 94° C. for 30 sec, 60° C. for 30 sec and 72° C. for 30 sec, plate read (detection of fluorescent product) for cycles, followed by extension at 72° C. for 7 min. Melting curve analysis was done to characterize the double-stranded DNA product. The levels of IL-2 mRNA normalized for GAPDH were expressed as fold changes relative to that of untreated controls. All experiments were performed at least three times.

[4] = tested on: atopic skin disease BALB/c mice; assay: DNCB/mite extract-induced atopic skin disease in mice; type: in vivo; settings: 4H3MC 50 mg/kg orally every day for 4 weeks
Experimental: With reference to a previously reported publication, atopic skin disease was induced using DNCB and a mite extract. BALB/c mice were divided into four groups, and then the skin was peeled off by touching each earlobe five times with a surgical tape (Seo-il Chemistry, Hwa-sung, Korea). On day 0, 20 μl of DNCB (1%) was applied to each peeled earlobe, and on day 4, 20 μl of a mite extract (10 mg/mL) was applied. DNCB and the mite extract were alternately applied once a week for 4 weeks. From day 1, 4H3MC (50 mg/kg) was administered orally everyday for 4 weeks. Using a thickness meter (Kori Seiki MFG Co., Japan), the ear thickness was measured at 24 hours after application of DNCB or the mite extract. After 28 days, blood was sampled, and the serum portions were stored at […]. After blood sampling, the ear tissue was cut and used for histopathological analysis.

[5] = tested on: PKCθ, ERK and p38 kinase; assay: Western blot of phospho-PKCθ, ERK and p38 in activated Jurkat T cells; type: cell-based, human
Experimental: as §1
Jurkat T cells were lysed by cold lysis buffer (1% Triton X-100, 150 mM NaCl, 20 mM Tris, pH 7.5, protease inhibitor and phosphatase inhibitor) for 1 hour, and then centrifuged at 4° C. at 16,000×g for 30 minutes. About 100 μg of the extract lysate was separated through 10% SDS-PAGE. Proteins were transferred into a nitrocellulose membrane by means of Trans-Blot SD semidry transfer cell (Bio-Rad, Hercules, Calif.). The membrane was blocked in 5% skim milk for 1 hour, washed, and then incubated with the indicated antibodies in 3% skim milk overnight. Excess primary antibody was removed by washing the membrane with TBST, and then the membrane was incubated with peroxidase-conjugated secondary antibody for 2 hours. After washing with TBST, bands were visualized by Western blotting detection reagent and then exposed to x-ray film.

[6] = tested on: AP-1, NF-κB and NFAT; assay: AP-1, NF-κB and NFAT luciferase activity assays; type: cell-based, human; settings: transfected Jurkat T cells, 4H3MC 10 μM pretreatment 1 hour, PMA/A23187 16 hours
Experimental: Jurkat T cells (1.5×10^6) were transfected with 100 μl of Amaxa's Nucleofector solution (Amaxa, Germany) containing 3 μg of pGL3-AP-1, pGL3-NF-κB or pGL3-NFAT Luc plasmids, and then the cells were transferred to complete medium and cultured at 37° C. After 48 hours of transfection, the transfected cells were pretreated with 4H3MC (10 μM) for 1 hour, and then stimulated with PMA/A23187 for 16 hours. After […], the cells were harvested and lysed with a lysis buffer for luciferase assay (Promega, Madison, Wis.). Cellular debris was removed from lysed proteins by centrifugation at 16,000×g at 4° C. for 30 minutes. Luciferase activity was measured with a Centro LB 960 Luminometer (Berthold Technologies, Germany).

[7] = tested on: Jurkat T cells; assay: Cell death assay (microscopy, 7-AAD/annexin V flow cytometry, Hoechst staining); type: cell-based, human; settings: 16 hours
Experimental: Cell death of Jurkat T cells was examined using a double staining method with 7-AAD and annexin V-PE. Jurkat T cells (1×10^6) were indicated concentrations of 4H3MC for 16 hours, and then suspended in 200 μl of HBSS buffer comprising 7-AAD (1 μg/ml) and were incubated at 37° C. for 10 minutes. After 10 minutes, the cells were incubated with 200 μl of HBSS buffer comprising V-PE (20 μg/ml) and analyzed immediately on a BD FACS Canto™ II Flow Cytometer (BD Biosciences). All experiments were performed at least three times.
Jurkat T cells were treated with 10 μM of 4H3MC for 16 hours, and then pelleted onto a PLL-coated cover glass slide (18-mm diameter; Fisher Scientific, Pittsburgh, Pa.) using a cytospin centrifuge. The pelleted cells were fixed in 2% para-formaldehyde at room temperature for 10 minutes, and then washed three times with PBS. As control, cells were stained with TRITC-phalloidin for detecting actin. The slide was incubated for 2 minutes in PBS containing Hoechst dye (1:105) at room temperature, and then the cells were examined using an FV1000 confocal microscope.

[8] = molecular target: T1, PKCθ (Homo sapiens, UniProt Q04759); assay: PKCθ phosphorylation and accumulation at the immunological synapse (confocal imaging); type: cell-based; settings: Jurkat T cells pretreated with 4H3MC 10 μM, conjugates with SEE-pulsed Raji B cells
T1 construct: endogenous in cells; host or cells: Jurkat T cells conjugated with SEE-pulsed Raji B cells
Experimental: Jurkat T cells were pretreated with 10 μM of 4H3MC for 1 hour, while Raji B cells were stained with 1 μM of CMFDA green tracker for 30 minutes. After washing twice with RPMI medium, Raji B cells were incubated with SEE (1 μg/ml) at 37° C. for 30 minutes. SEE-conjugated Raji B cells were incubated with 4H3MC-treated Jurkat T cells for 10 minutes to form an immunological synapse, and then placed on glass coverslips. The cells were fixed with 2% paraformaldehyde and washed with PBS. After washing, the cells were permeabilized with 0.1% TritonX-100 and incubated with primary antibodies (antibodies against CD3, LFA-1, t-PKCθ, p-PKCθ) overnight. On the next day, the cells were washed with PBS, and then incubated with secondary antibodies (cy3-conjugated goat anti-mouse IgG, Texas Red-conjugated goat anti-rabbit IgG antibodies) at room temperature for 1 hour. After washing, the cells were placed on a slide glass using Dako fluorescent mounting medium (Dako, Denmark), followed by drying. The dried slide samples were examined with an FV1000 confocal laser scanning microscope (Olympus), and CD3, LFA-1, t-PKCθ and p-PKCθ accumulation at the immunological synapse was observed and analyzed.

[9] = Jurkat T cells pre-activated 30 minutes with anti-CD3/CD28 or PMA/A23187, then 4H3MC 10 μM
[10] = Jurkat T cells, 4H3MC 10 μM pretreatment 1 hour, anti-CD3/CD28 or PMA/A23187

T1 sequence (Q04759 whole entry): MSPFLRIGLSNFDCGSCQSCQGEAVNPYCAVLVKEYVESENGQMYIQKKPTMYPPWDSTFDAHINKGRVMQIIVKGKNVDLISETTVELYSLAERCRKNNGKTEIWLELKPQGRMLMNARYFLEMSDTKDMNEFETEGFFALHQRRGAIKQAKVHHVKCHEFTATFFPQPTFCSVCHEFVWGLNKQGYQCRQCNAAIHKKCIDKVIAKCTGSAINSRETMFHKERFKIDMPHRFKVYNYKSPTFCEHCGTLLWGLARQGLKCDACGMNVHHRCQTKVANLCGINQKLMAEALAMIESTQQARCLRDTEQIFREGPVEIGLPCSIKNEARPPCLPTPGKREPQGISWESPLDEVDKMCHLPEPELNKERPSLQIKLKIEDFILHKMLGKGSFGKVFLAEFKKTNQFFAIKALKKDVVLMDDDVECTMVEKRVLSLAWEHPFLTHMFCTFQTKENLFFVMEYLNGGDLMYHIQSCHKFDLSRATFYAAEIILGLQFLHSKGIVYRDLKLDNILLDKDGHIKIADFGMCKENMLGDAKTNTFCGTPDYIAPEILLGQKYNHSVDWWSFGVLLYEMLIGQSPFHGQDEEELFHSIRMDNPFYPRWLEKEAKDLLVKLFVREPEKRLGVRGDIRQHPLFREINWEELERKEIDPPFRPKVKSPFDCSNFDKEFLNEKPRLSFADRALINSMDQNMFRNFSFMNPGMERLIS

SMILES	PKC activity [1]	IC50 [2] [µM]	IL-2 expression (mRNA) ([3]; Jurkat T cells and human PBLs pretreated 1 hour with 4H3MC 0-250 μM, then PMA/A23187 or anti-CD3/CD28 for 6 hours)	concentration at which dramatic inhibition of IL-2 expression was seen ([3]; Jurkat T cells and human PBLs, pretreatment 1 hour, PMA/A23187 or anti-CD3/CD28) [µM]	IL2 mRNA expression, post-treatment [3, 9]	time-dependent IL-2 mRNA expression ([3]; Jurkat T cells, 4H3MC 10 μM pretreatment 1 hour, anti-CD3/CD28 or PMA/A23187 for various times)	ear symptoms (flushed and swollen) 28 days after induction [4]	ear thickness [4]	phosphorylated forms of PKCθ, ERK and p38, post-treatment [5, 9]	phosphorylation of ERK and p38 [5, 10]	phosphorylation of PKCθ [5, 10]	luciferase activities of NF-κB, AP-1 and NFAT [6]	apoptosis or necrosis ([7]; 10-100 μM)	apoptosis or necrosis by Hoechst staining ([7]; effective concentration (10 μM))	necrosis ([7]; high concentrations (250 μM))	fold effectiveness versus HCA in inhibition of IL-2 in T cells ([2]; comparison of IC50 values of 4H3MC and HCA) [fold]	time-dependent IL-2 secretion ([2]; human PBLs, 4H3MC 10 μM pretreatment 1 hour, PMA/A23187)	phosphorylation and accumulation of PKCθ at the IS [8]
O=C(O)C=Cc1ccc(O)cc1 [HCA, p-hydroxycinnamic acid, reference compound]	inhibit PKC activity in vitro	15 to 18	–	–	–	–	–	–	–	–	–	–	–	–	–	–	–	–
COc1cc(C=CC=O)ccc1O [4H3MC, 4-Hydroxy-3-methoxycinnamaldehyde]	significantly inhibited PKC-specific activity with the lower effective concentration than HCA	~2.5	significantly inhibited IL-2 expression in a concentration-dependent manner	2 to 10	effectively reduced the expression of IL2 mRNA in pre-activated Jurkat T cells	inhibited IL-2 mRNA expression at the early time point (about 3 hours) after stimulation which lasted over 6 hours	such symptoms were alleviated	became significantly thinner from 8 days	significantly reduced	dramatically reduced anti-CD3/CD28- and PMA/A23187-induced phosphorylation of ERK and p38	significantly blocked phosphorylation of PKCθ	considerably reduced PMA/A23187-induced luciferase activities of NF-κB, AP-1 and NFAT	did not induce apoptosis or necrosis	does not induce apoptosis or necrosis at its effective concentration	induced necrosis in some Jurkat T cells	~5	significantly reduced	significantly reduced the phosphorylation as well as accumulation of PKCθ at the IS
